From ChEMBL document CHEMBL5316264, “Identification of N- and C-3-Modified Laudanosoline Derivatives as Novel Influenza PAN Endonuclease Inhibitors” (J Med Chem, 2023)
Calls of active or inactive are those of the source. The calls are words filed in the database; no cut-off is given here.

Key:
[1] = Cytotoxicity against MDCK cells incubated for 48 hrs by MTT assay; type: toxicity, cell-based, Canis lupus familiaris; conditions: dog
[2] = in vitro; conditions: dog, MDCK cells
[3] = tested on: Influenza A virus; assay: Antiviral activity against influenza A virus A/WSN/33 (H1N1) infected in MDCK cells at 20 uM pre-infected with virus for 1 hr followed by compound addition and measured after 24 hrs post infection; type: functional, organism-based
[4] = tested on: Influenza A virus; assay: Antiviral activity against influenza A virus H5N1(A/Duck/Guangdong/212/2004) infected in MDCK cells assessed as inhibition of cytopathic effect incubated for 48 hrs by MTT assay; type: functional, organism-based
[5] = tested on: Influenza A virus; assay: Antiviral activity against influenza A virus H3N2(JX/312) infected in MDCK cells assessed as inhibition of cytopathic effect incubated for 48 hrs by MTT assay; type: functional, organism-based
[6] = tested on: Influenza A virus; assay: Antiviral activity against influenza A virus Flu (B/Lee/1940) infected in MDCK cells assessed as inhibition of cytopathic effect incubated for 48 hrs by MTT assay; type: functional, organism-based
[7] = Metabolic stability in mouse liver microsomes assessed as intrinsic clearance at 10 uM incubated for 5 mins in presence of NADPH by LC-MS/MS analysis; type: ADME, Microsome; conditions: read-out: CLH
[8] = Metabolic stability in mouse liver microsomes assessed as half life at 10 uM incubated for 5 mins in presence of NADPH by LC-MS/MS analysis; type: ADME, Microsome
[9] = target: Polymerase acidic protein (Influenza A virus (A/Puerto Rico/8/1934(H1N1))) (UniProt P03433); assay: Inhibition of Influenza A virus N-terminal domain of PA endonuclease using 6FAM-TGGCAATATCAGCTCCACA-MGBNFQ as fluorescent substrate by FRET analysis
[10] = tested on: Influenza A virus; assay: Antiviral activity against Influenza A A/WSN/33 (H1N1) infected in BALB/c mouse at 10 mg/kg/day, ip administered twice daily for 5 days starting from 1 hrs post infection and measured daily for 14 days; type: functional, organism-based; conditions: time 5.0 day
[11] = Metabolic stability in mouse plasma assessed as compound remaining measured after 60 mins by LC-MS/MS analysis; type: ADME, cell-free; conditions: read-out: Stability
[12] = Metabolic stability in mouse plasma assessed as compound remaining measured after 90 mins by LC-MS/MS analysis; type: ADME, cell-free; conditions: read-out: Stability
[13] = Metabolic stability in mouse plasma assessed as compound remaining measured after 120 mins by LC-MS/MS analysis; type: ADME, cell-free; conditions: read-out: Stability
[14] = Metabolic stability in mouse plasma assessed as compound remaining measured after 30 mins by LC-MS/MS analysis; type: ADME, cell-free; conditions: read-out: Stability

Row | Structure (SMILES) | CC50 at 48 h [1] | selectivity ratio [2] | also measured
1 | COC(=O)[C@@H]1Cc2cc(O)c(O)cc2[C@H](Cc2ccc(O)c(O)c2)N1C(=O)c1cccc(Cl)c1 | 61.1 µM | 25.3 | 
2 | CCCCCCC(=O)N1[C@H](C(=O)OC)Cc2cc(O)c(O)cc2[C@@H]1Cc1ccc(O)c(O)c1 | 84.3 µM | 5.1 | 
3 | O=C(Nc1ccccc1)[C@@H]1Cc2cc(O)c(O)cc2[C@H](Cc2ccc(O)c(O)c2)N1C(=O)c1ccccc1Cl | 169 µM | 10.8 | 
4 | COC(=O)[C@@H]1Cc2cc(O)c(O)cc2[C@H](Cc2ccc(O)c(O)c2)N1C(=O)c1cccc([N+](=O)[O-])c1 | > 101 µM | > 5.3 | 
5 | CC(=O)N[C@H]1[C@H]([C@H](O)[C@H](O)CO)OC(C(=O)O)=C[C@@H]1NC(=N)N |  |  | Activity [3]: inactive
6 | C=CC(=O)N1[C@H](C(=O)OC)Cc2cc(O)c(O)cc2[C@@H]1Cc1ccc(O)c(O)c1 | 47.5 µM | 8.9 | 
7 | O=C(Nc1ccncc1)[C@@H]1Cc2cc(O)c(O)cc2[C@H](Cc2ccc(O)c(O)c2)N1C(=O)c1ccccc1Cl | 203 µM | 101 | EC50 [4]: 2.85 µM; EC50 [5]: 0.95 µM; EC50 [6]: 0.82 µM
8 | COC(=O)[C@@H]1Cc2cc(O)c(O)cc2[C@H](Cc2ccc(O)c(O)c2)N1C(=O)c1ccc(C(F)(F)F)cc1 | > 101 µM | > 10.8 | 
9 | COC(=O)[C@@H]1Cc2cc(O)c(O)cc2[C@H](Cc2ccc(O)c(O)c2)N1C(=O)c1ccccc1F | 82.3 µM | 29.7 | 
10 | CCOC(=O)[C@@H]1Cc2cc(O)c(O)cc2[C@H](Cc2ccc(O)c(O)c2)N1C(=O)c1ccccc1Cl | 98.5 µM | 30.7 | 
11 | COC(=O)[C@@H]1Cc2cc(O)c(O)cc2[C@H](Cc2ccc(O)c(O)c2)N1C(=O)c1ccccc1[N+](=O)[O-] | > 101 µM | > 9.2 | 
12 | O=C(Oc1ccccc1)[C@@H]1Cc2cc(O)c(O)cc2[C@H](Cc2ccc(O)c(O)c2)N1C(=O)c1ccccc1Cl | 70.3 µM | 52.1 | 
13 | O=C1c2c(O)c(=O)ccn2N([C@@H]2c3ccccc3SCc3c2ccc(F)c3F)[C@@H]2COCCN12 [BALOXAVIR] | > 100 µM | > 11700 | 
14 | O=C(O)Cc1ccccc1Nc1c(Cl)cccc1Cl [DICLOFENAC] |  |  | microsomal CLint at 10 µM [7]: 112 µL/min/mg; half-life at 10 µM [8]: 12.1 min
15 | COC(=O)[C@@H]1Cc2cc(O)c(O)cc2[C@H](Cc2ccc(O)c(O)c2)N1C(=O)c1ccc(F)cc1 | > 101 µM | > 33.6 | 
16 | COC(=O)[C@@H]1Cc2cc(O)c(O)cc2[C@H](Cc2ccc(O)c(O)c2)N1C(=O)c1cccc(Br)c1 | > 101 µM | > 26.4 | 
17 | COC(=O)[C@@H]1Cc2cc(O)c(O)cc2[C@H](Cc2ccc(O)c(O)c2)N1C(=O)c1ccc(Cl)cc1 | 87.4 µM | 34.5 | 
18 | COC(=O)CNC(=O)[C@@H]1Cc2cc(O)c(O)cc2[C@H](Cc2ccc(O)c(O)c2)N1C(=O)c1ccccc1Cl | 143 µM | 36.8 | 

Row | Structure (SMILES) | CC50 at 48 h [1] | selectivity ratio [2] | also measured
19 | COC(=O)[C@@H]1Cc2cc(O)c(O)cc2[C@H](Cc2ccc(O)c(O)c2)N1C(=O)c1ccccc1 | 157 µM | 29.7 | inhibition [9]: Dose-Dependent Effect
20 | COC(=O)[C@@H]1Cc2cc(O)c(O)cc2[C@H](Cc2ccc(O)c(O)c2)N1C(=O)c1ccc(Cl)cc1Cl | > 101 µM | > 21.2 | 
21 | CCC(CC)[C@H](NC(C)=O)[C@@H]1[C@H](O)[C@@H](C(=O)O)C[C@H]1NC(=N)N [PERAMIVIR ANHYDROUS] | > 101 µM | > 19.2 | EC50 [4]: 1.06 µM; EC50 [5]: 215 µM; EC50 [6]: 1.66 µM; Activity [10]: Active
22 | COC(=O)[C@@H]1Cc2cc(O)c(O)cc2[C@H](Cc2ccc(O)c(O)c2)N1C(=O)c1ccc(Br)cc1 | > 101 µM | > 25.5 | 
23 | COC(=O)COC(=O)[C@@H]1Cc2cc(O)c(O)cc2[C@H](Cc2ccc(O)c(O)c2)N1C(=O)c1ccccc1Cl | 163 µM | 67.1 | 
24 | O=C(O[C@@H]1Cc2c(O)cc(O)cc2O[C@@H]1c1cc(O)c(O)c(O)c1)c1cc(O)c(O)c(O)c1 [EPIGALOCATECHIN GALLATE] | > 100 µM | > 3.3 | 
25 | COC(=O)[C@@H]1Cc2cc(O)c(O)cc2[C@H](Cc2ccc(O)c(O)c2)N1C(=O)c1ccccc1Br | > 101 µM | > 29.5 | 
26 | COC(=O)[C@@H]1Cc2cc(O)c(O)cc2[C@H](Cc2ccc(O)c(O)c2)N1C(=O)C1CCCCC1 | 64.5 µM | 3.4 | 
27 | COC(=O)[C@@H]1Cc2cc(O)c(O)cc2[C@H](Cc2ccc(O)c(O)c2)N1C(=O)c1c(Cl)cccc1Cl | 81.6 µM | 15.5 | 
28 | COC(=O)[C@@H]1Cc2cc(O)c(O)cc2[C@H](Cc2ccc(O)c(O)c2)N1C(=O)c1cccc(F)c1 | 73.7 µM | 25.8 | 
29 | O=C(O)[C@@H]1Cc2cc(O)c(O)cc2[C@H](Cc2ccc(O)c(O)c2)N1C(=O)c1ccccc1Cl | 103 µM | 5.4 | 
30 | CN(C)C(=O)[C@@H]1Cc2cc(O)c(O)cc2[C@H](Cc2ccc(O)c(O)c2)N1C(=O)c1ccccc1Cl | 137 µM | 10.8 | 
31 | CC(C)[N+](C)(CCOC(=O)C1c2ccccc2Oc2ccccc21)C(C)C [PROPANTHELINE BROMIDE] |  |  | remaining at 1 h [11]: 18.2%; remaining at 1.5 h [12]: 10.3%; remaining at 2 h [13]: 2%; remaining at 0.5 h [14]: 45.5%
32 | COC(=O)[C@@H]1Cc2cc(O)c(O)cc2[C@H](Cc2ccc(O)c(O)c2)N1C(=O)c1ccc2ccccc2c1 | 45.2 µM | 15.6 | 
33 | COC(=O)[C@@H]1Cc2cc(O)c(O)cc2[C@H](Cc2ccc(O)c(O)c2)N1C(=O)c1ccccc1C(F)(F)F | > 101 µM | > 11.1 | 
34 | COC(=O)[C@@H]1Cc2cc(O)c(O)cc2[C@H](Cc2ccc(O)c(O)c2)N1C(=O)c1ccccc1Cl | 89.8 µM | 49.3 | EC50 [4]: 2.36 µM; EC50 [5]: 0.92 µM; EC50 [6]: 0.86 µM
35 | COC(=O)[C@@H]1Cc2cc(O)c(O)cc2[C@H](Cc2ccc(O)c(O)c2)N1C(=O)c1cccc(C(F)(F)F)c1 | > 101 µM | > 11.8 | 
36 | CN1CCc2cc(O)c(O)cc2C1Cc1ccc(O)c(O)c1 (racemic) | > 200 µM | > 5.4 | 
